In patent US8377914B2, “Method of inducing negative chemotaxis” (Celtaxsys, Inc., priority 2008, dated 2013):
Where two headings read alike, the source gives them in different places.

System: neutrophils
Assay: Chemorepulsion assay of neutrophils in Neuroprobe ChemoTx plates, migrated cells quantified with Cell Titer Glo
Format: cell-based, human
Conditions: for Activity (chemorepulsive activity): screened at 3.7, 11.1, 33.3 and 100 uM
Protocol: The chemorepulsive activity of idebenone, benazepril, rolipram, moxonidine, lamivudine, calcitriol, calcipotriol, loxoprofen, terbinafine, Synephrine and 6-aminoindazole was determined as follows: • 1. Prior to beginning the assay, the following were prepared: • a. 0.5% Fetal Calf Serum (FCS) in Iscove's Modified Dulbecco's Medium (IMDM) (Assay Medium) (Both from ATCC). • b. Migratory cells at a concentration of 2×10^7 cells/ml in Assay Medium. • c. The indicated dilutions of the ligand of interest in Assay Medium were prepared. • 2. The assay plates are Neuroprobe ChemoTx plates, part number 206-3 (3 um pore size) for neutrophils. • 3. The plates were removed from packaging, leaving the membrane behind. • 4. 31 μl of the following solutions were pipetted into each well: • a. For media controls and for chemorepulsion samples, Assay Medium was used. • b. For chemoattraction samples, appropriate dilution of ligand was used. • 5. A sterile needle was used to pop any and all small bubbles present in each well. • 6. The membrane was carefully placed onto the plate, starting at one side and then slowly lowering the other edge onto the plate. • 7. 29 μl of the following were pipetted onto the top of each circle: • a. For media controls and chemoattraction (CA) samples, use Assay Medium. • b. For chemorepulsion (CR) samples, use the appropriate dilution of ligand. • 8. 2 μl of cells (40,000 cells) were added to each bubble of liquid from step 7. • 9. A needle was used to pop all air bubbles. • 10. The plate was covered with the supplied lid and incubated for the desired time at 37° C. in 5% CO2. Unless otherwise indicated, the incubation time was 1 hour for neutrophils and 3 hours for T cells. For monocytes and B cells, the incubation time was 2 hours. • 11. After the desired assay time, the liquid was removed from the top of the plate using a Kimwipe. At this point, the plate was stored (with the membrane in place) for up to 2 hours at 4° C. • 12. The membrane was carefully removed from the top of the plate and discard. The plate was examined under a microscope to look for ligand crystallization, contamination and overall migration. • 13. White read plates were preloaded with 25 ul PBS. • 14. Using a multichannel pipettor, 5 ul of Cell Titer Glo (Promega # G7572) was added to each well. • 15. Using a multichannel pipettor set at 30 ul, lysed cell solution was transferred to white read plates pre-loaded with PBS. • 16. The plate was read using the BioTek Synergy4 plate reader in order to quantify the number of migrated cells.
The calcitriol analogs listed below were screened at concentrations of 3.7, 11.1, 33.3 and 100 uM as described above for chemorepulsive activity (FIGS. 11-13).

[1] = Homo sapiens, Neutrophil, read-out: fold induction of chemorepulsion over media
[2] = Homo sapiens, Neutrophil, neutrophils, 0.1 uM, replicates, read-out: fold induction of chemorepulsion over media

CC(C(=O)O)c1ccc(CC2CCCC2=O)cc1 (stereo not drawn) [loxoprofen] was tested. Which fold induction at 0.091 µM [1] did it give?
Its fold induction at 0.091 µM is greater than 2.

Which fold induction at 0.1 µM [1] does the source give for CNCC(O)c1ccc(O)cc1 (stereo not drawn) [synephrine] here?
The fold induction at 0.1 µM was greater than 2.

CCOC(=O)[C@H](CCc1ccccc1)N[C@H]1CCc2ccccc2N(CC(=O)O)C1=O [benazepril] was tested. Which fold induction at 0.92 µM [1] did it give?
Its fold induction at 0.92 µM is roughly 2.

How did the “Activity (chemorepulsive activity)” value (neutrophils) turn out when C=C1/C(=C\C=C2/CCC[C@]3(C)[C@@H]([C@H](C)/C=C/[C@@H](O)C4CC4)CC[C@@H]23)C[C@@H](O)C[C@@H]1O [Calcipotriene] was run?
Its value is “Chemorepellant”.

For Nc1ccc2c[nH]nc2c1 [6-aminoindazole], which fold induction at 0.1 µM [2] is on record?
The fold induction at 0.1 µM was greater than 3.

C=C1/C(=C\C=C2/CCCC3(C)C2CCC3[C@@H](C)CCCC(C)(C)O)C[C@@H](O)CC1O (stereo partly drawn) [calcitriol, 1,25-dihydroxyvitamin D] was tested. Which fold induction at 100 µM (Homo sapiens, Neutrophil, neutrophils, 100 uM, read-out: fold induction of chemorepulsion over media) did it give?
The fold induction at 100 µM was greater than 3.

With CN(C/C=C/C#CC(C)(C)C)Cc1cccc2ccccc12 [terbinafine, N,6,6-trimethyl-N-(naphthalen-1-ylmethyl)hept-2-en-4-yn-1-amine] as the molecule, how does the fold induction at 89 µM (Homo sapiens, Neutrophil, neutrophils, 89 uM, read-out: fold induction of chemorepulsion over media) read?
The fold induction at 89 µM was greater than 2.5.

With C=C1CC[C@H](O)C/C1=C/C=C1\CCC[C@]2(C)[C@@H]([C@H](C)/C=C/[C@H](C)C(C)C)CC[C@@H]12 [Vitamin D2, ergocalciferol] as the molecule, how does the “Activity (chemorepulsive activity)” value (neutrophils) read?
The value was “Chemorepellant”.

Which “Activity (chemorepulsive activity)” value (neutrophils) does the source give for C=C1CC[C@H](O)C/C1=C/C=C1\CCC[C@]2(C)[C@@H]([C@H](C)CCCC(C)C)CC[C@@H]12 [Vitamin D3, cholecalciferol] here?
The value was “Chemorepellant”.

What does the source list for COc1nc(C)nc(Cl)c1NC1=NCCN1 [moxonidine]?
fold induction at 0.092 µM (Homo sapiens, Neutrophil, neutrophils, 0.092 uM, replicates, read-out: fold induction of chemorepulsion over media): ~2; fold induction at 9.9 µM (Homo sapiens, Neutrophil, neutrophils, 9.9 uM, replicates, read-out: fold induction of chemorepulsion over media): > 2

C=C1/C(=C\C=C2/CCC[C@]3(C)[C@@H]([C@H](C)CCCC(C)C)CC[C@@H]23)C[C@@H](O)C[C@@H]1O [1α-hydroxycholecalciferol] was tested. Which “Activity (chemorepulsive activity)” value (neutrophils) did it give?
The value was “No activity”.

For C=C1/C(=C\C=C2/CCC[C@]3(C)[C@@H]([C@H](C)/C=C/[C@H](C)C(C)C)CC[C@@H]23)C[C@@H](O)C[C@@H]1O [1α-hydroxyvitamin D2], which “Activity (chemorepulsive activity)” value (neutrophils) is on record?
The value was “No activity”.

Which fold induction at 0.1 µM [2] does the source give for COc1ccc(C2CNC(=O)C2)cc1OC1CCCC1 (stereo not drawn) [rolipram, 4-(3-cyclopentyloxy-4-methoxy-phenyl)pyrrolidin-2-one] here?
Its fold induction at 0.1 µM is 2.

C=C1CC[C@H](O)C/C1=C/C=C1\CCC[C@]2(C)[C@@H]([C@H](C)CCCC(C)(C)O)CC[C@@H]12 [Calcefidiol] was tested. Which “Activity (chemorepulsive activity)” value (neutrophils) did it give?
Its value is “No activity”.
